Data reported in patent publication US20180338922A1, “FIXED DOSE FORMULATIONS” (Esperion Therapeutics, Inc., priority 2017, published 2018).
Entries after “also recorded” stand apart in the source; their conditions may differ. Where two headings read alike, the source gives them in different places.

How the values were obtained:
[1] = Drug-drug compatibility study (HPLC, binary mixture 1:18 ezetimibe:bempedoic acid, solid state); type: physicochemical; conditions: for Assay (Bempedoic Acid): in % (unit assumed)
Procedure: The fixed dose combination product under development is a novel combination of two drug substances and therefore determination of compatibility of the actives with each other was considered to be critical. The compatibility of the actives was assessed through HPLC analysis of binary mixtures of the drug substances at a ratio 1:18 (ezetimibe:bempedoic acid) in the solid state. Samples were stored at 60° C. and 40° C./75% RH in both open and closed containers for 2 weeks and 4 weeks respectively. Degradation products were evaluated for open (stressed) samples of accelerated condition (40° C./75% RH) and 60° C. Assay for the samples was also carried out.

[2] = cited from earlier work
[3] = Log partition coefficient (log p); type: physicochemical
[4] = Forced degradation of bempedoic acid; type: physicochemical
Procedure: Forced degradation of bempedoic acid was carried out to study the impurity profile, degradation pathway, and to facilitate the development of a stability-indicating method. In addition, knowledge obtained from the forced degradation studies was used during formulation and process design and development to prevent impurities from being generated. The specified stress conditions were intended to achieve 5-20% degradation. The stressed samples were compared to the unstressed sample (control).

[5] = Flowability of the APIs (compressibility index, Hausner's ratio); type: physicochemical; conditions: drug substance
[6] = pKa by potentiometric titration; type: physicochemical; conditions: determined by potentiometric titration
[7] = Multimedia dissolution of Bempedoic acid tablets (USP Apparatus-II, 50 rpm, 900 mL); type: physicochemical; conditions: QC medium (phosphate buffer, pH 6.8); in 20 minutes
Procedure: Dissolution characterization was performed in accordance with the dissolution method detailed in IND #106,654. The dissolution conditions were 900 mL phosphate buffer, pH 6.8, using Apparatus-II at 50 rpm.

[8] = Forced degradation of ezetimibe; type: physicochemical
[9] = QC dissolution of ezetimibe component (0.45% SLS in 0.05 M acetate buffer pH 4.5, Apparatus-II, 50 rpm, 500 mL); type: physicochemical; conditions: QC dissolution medium, within 15 minutes
Procedure: Drug release profiles for both actives were estimated using common chromatographic conditions with different injection volumes.
The goal of Formulation Development Study #2 was to optimize the concentration of binder used for the granulation of ezetimibe. Wet granulation was used for the preparation of ezetimibe granules. Binder solution, povidone with SLS, and ezetimibe were used for the granulation of dry-mix powder blend. One trial with a higher concentration of povidone (3 mg/tablet) and another with a lower concentration (1 mg/tablet) were performed to observe the impact of binder concentration on dissolution. Ezetimibe granules were mixed with Bempedoic acid granules separately and compressed into a monolayer tablet for both trials.
Dissolution Profile of FDC test product (ezetimibe component) in QC media is given in Table 52, Table 53, FIG. 15, and FIG. 16.

[10] = Drug substance attributes (solubility, permeability, BCS class, hygroscopicity); type: physicochemical
[11] = 18.48 mg of solid in Sun cabinet 765 W/m2 at 35° C. for 24 hrs
[12] = 21.41 mg of solid + Heating at 80° C. for 24 hrs
[13] = 5.0 mL stock solution + Heating at 80° C. for 30 min
[14] = 5.0 mL stock solution in Sun cabinet 765 W/m2 at 35° C. for 15 hrs

For CC(C)(CCCCCC(O)CCCCCC(C)(C)C(=O)O)C(=O)O [Bempedoic acid, 8-hydroxy-2,2,14,14-tetramethylpentadecanedioic acid], the “Assay (Bempedoic Acid)” value ([1]; 2W 60°) was 100.2, the “Assay (Bempedoic Acid)” value ([1]; 4W 40° C./75% RH Open) was 103.7 and the unspecified impurity ([1]; Initial, 2W 60°, 4W 40° C./75%) was “No unspecified impurity generated”. The “Assay (Bempedoic Acid)” value ([1]; Initial) was 101.7, the aqueous solubility [2] was “pH dependent” and the aqueous solubility ([2]; listed as Bempedoic acid (ETC-1002)) was “poorly soluble in water”. The logP ([3]; octanol/pH 3.5 buffer, pH 3.5) was 4.38, the logP ([3]; octanol/water) was 4.33 and the Assay ([4]; Non stressed bempedoic acid) was 99.0%. It also gave an Assay ([4]; Photo, solid state) of 99.2%, an Assay ([4]; Thermal, solid state 105° C.) of 95.8% and an Assay ([4]; Thermal, solution 105 C) of 97.7%. For the same compound, the “stability in the stress test study” value ([4]; all studied stress conditions) was “stable at all studied conditions”, the Assay ([4]; exposed to H2O2) was 100.4% and the Assay ([4]; exposed to HCl) was 98.7%. The Assay ([4]; exposed to NaOH, differs from expected ~100% due to non-quantitative neutralization prior to injection (footnote 2)) was 117.3(2) %, the “Hausner's ratio” value [5] was 1.48 and the compressibility index [5] was 32.6%. For the same compound, the pKa [6] was 4.88, the pKa ([6]; second value) was 5.6 and the drug released [7] was “more than 85%”.
With O=C1[C@H](CC[C@H](O)c2ccc(F)cc2)[C@@H](c2ccc(O)cc2)N1c1ccc(F)cc1 [Ezetimibe, (3R,4S)-1-(4-fluorophenyl)-3-[(3S)-3-(4-fluorophenyl)-3-hydroxypropyl]-4-(4-hydroxyphenyl) azetidin-2-one] the Assay (EZT) ([1]; 2W 60°) was 97.6%, the “EZT 21 (Keto impurity)” value ([1]; 2W 60°) was 0.04 and the EZT cyclic ether ([1]; 2W 60°) was 0.12%. For the same compound, the SMUI ([1]; 2W 60°) was 0.17%, the Total impurities ([1]; 2W 60°) was 0.33% and the Assay (EZT) ([1]; 4W 40° C./75% RH Open) was 99.5%. For the same compound, the “EZT 21 (Keto impurity)” value ([1]; 4W 40° C./75% RH Open) was 0.38, the EZT cyclic ether ([1]; 4W 40° C./75% RH Open) was 0.9% and the SMUI ([1]; 4W 40° C./75% RH Open) was 0.19%. The Total impurities ([1]; 4W 40° C./75% RH Open) was 2.34%, the Assay (EZT) ([1]; Initial) was 99.3% and the “EZT 21 (Keto impurity)” value ([1]; Initial) was 0.03. The SMUI ([1]; Initial) was 0.03%, the Total impurities ([1]; Initial) was 0.06% and the aqueous solubility [2] was “insoluble in aqueous media at all pH; also recorded: poorly soluble in water”. The logP ([3]; n-octanol/pH 7 aqueous phase, n-octanol: pH 7) was 4.51, the logP ([3]; pH 1, n-octanol: 0.1N HCl) was 4.52 and the “Hausner's ratio” value [5] was 1.42. For the same compound, the compressibility index [5] was 29.60%, the “% Degradation, Total (unspecified and specified)” value (“% Degradation, Total” for short) [8, 11] was 0.22% and the Assay [8, 11] was 98.0%. For the same compound, the “% Degradation, Total” value [8, 12] was 0.14%, the Assay [8, 12] was 96.3% and the Assay ([8]; 5.0 mL stock solution + 0.1 mL 1N NaOH at RT for 30 min) was 83.1%. For the same compound, the Assay ([8]; 5.0 mL stock solution + 1 mL 1N HCl at RT for 24 hrs) was 97.9%, the Assay ([8]; 5.0 mL stock solution + 1 mL H2O2 30% at RT for 24 hrs) was 97.0% and the “% Degradation, Total” value [8, 13] was 5.67%. For the same compound, the Assay [8, 13] was 93.1%, the “% Degradation, Total” value [8, 14] was 1.57% and the Assay [8, 14] was 95.0%. For the same compound, the “% Degradation, Total” value ([8]; Non stressed ezetimibe) was 0.12%, the Assay ([8]; Non stressed ezetimibe) was 100.0% and the “stability classification from forced degradation” value ([8]; exposure to alkali (NaOH) and peroxide (H2O2)) was “sensitive to alkali and peroxide”. The “stability in the solid form” value ([8]; heat and photo irradiation, solid form) was “stable to heat and photo irradiation”, the “drug release (ezetimibe)” value [9] was “more than 85%” and the BCS class [10] was “Ezetimibe is BCS class II compounds having low”. The Solubility [10] was “low solubility” and the pKa [6] was 9.75.
